In PubChem BioAssay AID330 (DTP/NCI, 2004):
Several values for one entry are separate records, joined by “and”; a condition that tells them apart may be missing. Equal entries are not always repeated. Toxic doses and inconclusive results are not listed. Rule for the calls: active = survival T/C of 150% or more; inactive = T/C below 125% in these data.

Tested on: P388 leukemia ip, CD2F1 mice, survival T/C
Test: NCI In Vivo Anticancer Drug Screen. Data for tumor model P388 Leukemia (intraperitoneal) in CD2F1 (CDF1) mice
Settings: endpoint: median survival time, higher = longer survival
Outline: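 Mice carrying the transplanted tumor received test compound or vehicle. Survival was recorded in each group, and the value is the treated-group measurement divided by that of the vehicle-treated control group.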

[1] = dose: 50.0 mg/kg/injection, schedule: Q01DX005 (ip), vehicle: saline with Tween-80
[2] = dose: 100.0 mg/kg/injection, schedule: Q01DX005 (ip), vehicle: saline with Tween-80
[3] = dose: 200.0 mg/kg/injection, schedule: Q01DX005 (ip), vehicle: saline with Tween-80
[4] = dose: 50.0 mg/kg/injection, schedule: Q01DX009 (ip), vehicle: saline with Tween-80
[5] = dose: 100.0 mg/kg/injection, schedule: Q01DX009 (ip), vehicle: saline with Tween-80
[6] = dose: 200.0 mg/kg/injection, schedule: Q01DX009 (ip), vehicle: saline with Tween-80
[7] = dose: 50.0 mg/kg/injection, schedule: Q01DX009 (ip), vehicle: saline
[8] = dose: 100.0 mg/kg/injection, schedule: Q01DX009 (ip), vehicle: saline
[9] = dose: 200.0 mg/kg/injection, schedule: Q01DX009 (ip), vehicle: saline

Measured: T/C

CCN(CC)CCCC(C)Nc1c2ccc(Cl)cc2nc2ccc(OC)cc12 (stereo unspecified)
inactive: dose: 3.0 mg/kg/injection, schedule: Q03HX024 (ip), vehicle: saline with Tween-80 108 % of control | dose: 4.0 mg/kg/injection, schedule: Q01DX009 (ip), vehicle: suspension in saline 104 % of control | dose: 4.0 mg/kg/injection, schedule: Q#A X018 (ip), vehicle: saline with Tween-80 97 % of control | dose: 6.0 mg/kg/injection, schedule: Q03HX024 (ip), vehicle: saline with Tween-80 93 % of control | dose: 8.0 mg/kg/injection, schedule: Q01DX009 (ip), vehicle: saline with Tween-80 104 % of control and 105 % of control | dose: 8.0 mg/kg/injection, schedule: Q01DX009 (ip), vehicle: suspension in saline 110 % of control | dose: 8.0 mg/kg/injection, schedule: Q#A X018 (ip), vehicle: saline with Tween-80 87 % of control | dose: 16.0 mg/kg/injection, schedule: Q01DX009 (ip), vehicle: saline with Tween-80 106 % of control and 120 % of control | dose: 16.0 mg/kg/injection, schedule: Q01DX009 (ip), vehicle: suspension in saline 108 % of control | dose: 16.0 mg/kg/injection, schedule: Q#A X018 (ip), vehicle: saline with Tween-80 91 % of control | dose: 20.0 mg/kg/injection, schedule: Q04DX003 (ip), vehicle: saline with Tween-80 100 % of control | dose: 24.0 mg/kg/injection, schedule: Q03HX024 (ip), vehicle: saline with Tween-80 108 % of control | dose: 24.0 mg/kg/injection, schedule: Q04DX003 (ip), vehicle: saline with Tween-80 97 % of control | dose: 32.0 mg/kg/injection, schedule: Q01DX009 (ip), vehicle: saline with Tween-80 117 % of control | dose: 32.0 mg/kg/injection, schedule: Q01DX009 (ip), vehicle: suspension in saline 113 % of control | dose: 32.0 mg/kg/injection, schedule: Q#A X018 (ip), vehicle: saline with Tween-80 104 % of control | dose: 40.0 mg/kg/injection, schedule: Q04DX003 (ip), vehicle: saline with Tween-80 100 % of control | dose: 48.0 mg/kg/injection, schedule: Q04DX003 (ip), vehicle: saline with Tween-80 97 % of control | dose: 64.0 mg/kg/injection, schedule: Q01DX009 (ip), vehicle: suspension in saline 113 % of control | dose: 71.0 mg/kg/injection, schedule: Q01DX001 (ip), vehicle: saline with Tween-80 106 % of control | dose: 80.0 mg/kg/injection, schedule: Q04DX003 (ip), vehicle: saline with Tween-80 108 % of control | dose: 96.0 mg/kg/injection, schedule: Q04DX003 (ip), vehicle: saline with Tween-80 106 % of control | dose: 128.0 mg/kg/injection, schedule: Q01DX009 (ip), vehicle: saline with Tween-80 98 % of control | dose: 128.0 mg/kg/injection, schedule: Q01DX009 (ip), vehicle: suspension in saline 91 % of control | dose: 143.0 mg/kg/injection, schedule: Q01DX001 (ip), vehicle: saline with Tween-80 113 % of control

Cn1c(Br)c(/C=N/NC(N)=S)c2ccccc21
inactive: dose: 100.0 mg/kg/injection, schedule: Q01DX001 (ip), vehicle: Klucel (hydroxypropylcellulose) (HPC) 108 % of control | dose: 200.0 mg/kg/injection, schedule: Q01DX001 (ip), vehicle: Klucel (hydroxypropylcellulose) (HPC) 100 % of control | dose: 400.0 mg/kg/injection, schedule: Q01DX001 (ip), vehicle: Klucel (hydroxypropylcellulose) (HPC) 102 % of control

CC1(C)CCCC2(C)C3=C(CCC12)C(=O)OC3 (stereo unspecified)
inactive: dose: 25.0 mg/kg/injection, schedule: Q01DX005 (ip), vehicle: Klucel (hydroxypropylcellulose) (HPC) 101 % of control | dose: 50.0 mg/kg/injection, schedule: Q01DX005 (ip), vehicle: Klucel (hydroxypropylcellulose) (HPC) 102 % of control | dose: 100.0 mg/kg/injection, schedule: Q01DX005 (ip), vehicle: Klucel (hydroxypropylcellulose) (HPC) 100 % of control | dose: 200.0 mg/kg/injection, schedule: Q01DX005 (ip), vehicle: Klucel (hydroxypropylcellulose) (HPC) 100 % of control

C/C(=N\NC(=S)Nc1ccc([N+](=O)[O-])cc1S(=O)(=O)O)c1ccccn1
inactive: [1] 103 % of control | [2] 106 % of control | [3] 103 % of control

CC(C)(C)SC(=S)SCC(=O)c1cc2cc(Br)ccc2o1
inactive: [1] 89 % of control | [2] 96 % of control | [3] 93 % of control

COC(=O)c1ccc(C)c(N(CCO)CCO)c1
inactive: [1] 104 % of control | [2] 104 % of control | [3] 104 % of control

COCCC(=O)NC1CCCC[CH]1[Hg][Cl] (stereo unspecified)
inactive: dose: 25.0 mg/kg/injection, schedule: Q04DX003 (ip), vehicle: Klucel (hydroxypropylcellulose) (HPC) 97 % of control

Cc1nn(C(=O)c2c(-c3ccccc3)noc2C)c(C)c1N=Nc1cc(C(F)(F)F)cc(C(F)(F)F)c1
inactive: [4] 87 % of control | [5] 87 % of control | [6] 97 % of control

CC(Nc1nccs1)Nc1nccs1
inactive: dose: 6.25 mg/kg/injection, schedule: Q01DX009 (ip), vehicle: saline with Tween-80 102 % of control and 96 % of control | dose: 12.5 mg/kg/injection, schedule: Q01DX009 (ip), vehicle: saline with Tween-80 108 % of control and 98 % of control | dose: 25.0 mg/kg/injection, schedule: Q01DX009 (ip), vehicle: saline with Tween-80 102 % of control and 97 % of control | [4] 111 % of control | [5] 109 % of control

COc1cc(N=Nc2cc(CN(C)C)cc3ncccc23)c(OC)cc1N=Nc1ccc([N+](=O)[O-])cc1
inactive: dose: 12.5 mg/kg/injection, schedule: Q01DX005 (ip), vehicle: saline with Tween-80 98 % of control | dose: 12.5 mg/kg/injection, schedule: Q01DX009 (ip), vehicle: Klucel (hydroxypropylcellulose) (HPC) 93 % of control | dose: 25.0 mg/kg/injection, schedule: Q01DX005 (ip), vehicle: saline with Tween-80 109 % of control | dose: 25.0 mg/kg/injection, schedule: Q01DX009 (ip), vehicle: Klucel (hydroxypropylcellulose) (HPC) 91 % of control | dose: 38.25 mg/kg/injection, schedule: Q01DX009 (ip), vehicle: Klucel (hydroxypropylcellulose) (HPC) 102 % of control | [1] 100 % of control | dose: 50.0 mg/kg/injection, schedule: Q01DX009 (ip), vehicle: Klucel (hydroxypropylcellulose) (HPC) 120 % of control and 93 % of control | dose: 76.5 mg/kg/injection, schedule: Q01DX009 (ip), vehicle: Klucel (hydroxypropylcellulose) (HPC) 94 % of control | [2] 107 % of control | dose: 100.0 mg/kg/injection, schedule: Q01DX009 (ip), vehicle: Klucel (hydroxypropylcellulose) (HPC) 99 % of control and 115 % of control and 95 % of control | dose: 153.0 mg/kg/injection, schedule: Q01DX009 (ip), vehicle: Klucel (hydroxypropylcellulose) (HPC) 95 % of control | [3] 107 % of control | dose: 200.0 mg/kg/injection, schedule: Q01DX009 (ip), vehicle: Klucel (hydroxypropylcellulose) (HPC) 108 % of control and 93 % of control | dose: 306.0 mg/kg/injection, schedule: Q01DX009 (ip), vehicle: Klucel (hydroxypropylcellulose) (HPC) 110 % of control | dose: 400.0 mg/kg/injection, schedule: Q01DX005 (ip), vehicle: saline with Tween-80 109 % of control | dose: 400.0 mg/kg/injection, schedule: Q01DX009 (ip), vehicle: Klucel (hydroxypropylcellulose) (HPC) 102 % of control and 94 % of control

O=C(CNC(=O)Nc1ccc(Cl)c(Cl)c1)N/N=C/c1ccc2c(c1)OCO2
inactive: [4] 91 % of control | [5] 90 % of control | [6] 89 % of control

Cc1cc(O)c2c(O)c(-c3ccc4cc(C)cc(O)c4c3O)ccc2c1
inactive: [7] 104 % of control | [8] 112 % of control

CC(=O)OC1C(=O)OC(=O)C(OC(C)=O)C1OC(C)=O (stereo unspecified)
inactive: [7] 100 % of control | [8] 93 % of control | [9] 100 % of control

Brc1ccc(Nc2nnc3nc(-c4ccccc4)c(-c4ccccc4)nn23)cc1
inactive: [1] 89 % of control | [2] 89 % of control | [3] 97 % of control

CCOC(=O)c1c(C)[nH]c(-c2ccccc2)c1NS(=O)(=O)c1ccc(NC(C)=O)cc1
inactive: dose: 60.0 mg/kg/injection, schedule: Q01DX005 (ip), vehicle: saline with Tween-80 106 % of control | dose: 120.0 mg/kg/injection, schedule: Q01DX005 (ip), vehicle: saline with Tween-80 93 % of control | dose: 240.0 mg/kg/injection, schedule: Q01DX005 (ip), vehicle: saline with Tween-80 99 % of control

COc1nc(SC)c(C#N)c(=O)[nH]1
inactive: [7] 107 % of control | [8] 98 % of control | [9] 107 % of control

CC(C)=CCC/C(C)=C/COc1cc(O)c2c(O)c3c(cc2c1)CC(C)(O)CC3=O (stereo unspecified)
inactive: dose: 6.25 mg/kg/injection, schedule: Q01DX009 (ip), vehicle: saline + Tween-80 + alcohol 107 % of control | dose: 12.5 mg/kg/injection, schedule: Q01DX009 (ip), vehicle: saline + Tween-80 + alcohol 105 % of control | dose: 25.0 mg/kg/injection, schedule: Q01DX009 (ip), vehicle: saline + Tween-80 + alcohol 107 % of control
